# Assay results: patent US8822491B2, “Methods and compositions for treating β-thalassemia and sickle cell disease” (Academia Sinica, priority 2011, dated 2014)
# Where two headings read alike, the source gives them in different places.
# Legend:
# Type in all cases: cell-based
# [1] = test system: human erythroid progenitor cells; experiment: Cell proliferation (alamar Blue) of differentiated primary human erythroid cells; conditions: for IC50: Erythroid progenitor cell, 72 h, read-out: IC50 (concentration at which the cell proliferation rate is reduced by 50%)
# Description: FIG. 3 illustrates induction of the endogenous globin genes in the primary culture of human erythroid progenitor cells by compound A. (A) Dosage effect of compound A in the differentiated human erythroid progenitor cells. The differentiated primary cultured cells were treated with different concentrations of compound A for 3 days. Total mRNA was extracted, and relative induction of the β and γ globin mRNAs was determined by real time RT-PCR analysis. The cell proliferation abilities were determined with use of alamar Blue reagent (mock control as 100%). The white bars indicated the relative expression levels of β-globin. The gray bars represent the relative levels of γ-globin mRNA. (B) Comparison of γ and β globin gene expression patterns in primary erythroid cultured cells treated with different fetal globin inducing agents. […] The total RNAs were then isolated for real time RT-PCR analysis. Relative induction of the β globin gene (white bars) and the γ globin gene (grey bars) was then determined.
# IC50 values are the concentrations of the individual compounds at which the cell proliferation rates are reduced by 50%.
# (§1) Mouse erythroleukemic (MEL) cells, an adult erythroid cell line (Friend, et al. (1971) Proc Natl Acad Sci USA 68:378-82), were maintained in DMEM medium (Gibco) supplemented with 10% FBS and 1% penicillin-streptomycin, in 37° C. chamber under a 5% CO2 humidified atmosphere. For establishing stable cell lines, transfection of the reporter pmLAR-Gp-DsRed-Bp-d2EGFP into MEL cells was carried out using the Neon™ transfection system (Invitrogen). 2×10^6 MEL cells were transfected with 5 μg of the plasmid. Following microporation, the MEL cells were seeded in 10 ml antibiotics-free DMEM for 24 hrs and selected with […] of neomycin for one month. The primary human erythroid culture was initiated by maintaining the purified mononuclear cells in SFEM medium with 1× cc100 cytokine mix (StemSpan) for 7 days. The cells were then kept in the differentiation medium (SFEM with 20 ng/ml SCF, 1 U/ml EPO, 5 ng/ml IL-3, 2 micromolar dexamethasone) for another 7 days at a density of 0.1−1×10^6 cells/ml. The cells were treated with chemical compound at day 7 post-differentiation and then harvested for further analysis after 3 days of compound treatment.
# γ globin mRNA = experiment: Real time RT-PCR of γ globin mRNA in primary human erythroid cultures; set-up: expression level of the fetal γ globin gene: dose or concentration left out as unconfirmed
# Description: as §1
# (§2) Total RNAs were isolated with use of the RNAspin Mini kit (GE Healthcare). cDNA synthesis was carried out using SuperScript II reverse transcriptase (Invitrogen). Quantitative RT-PCR was performed using the SYBR Green PCR Master Mix (Applied Biosystems) and ABI 7500 real-time System. All data were analyzed after normalization to the expression level of the mouse or human […] gene.
# [2] = test system: mouse embryonic εy globin mRNA; experiment: Real-time RT-PCR of endogenous embryonic globin mRNA in MEL cells
# Description: 5×10^4 MEL cells carrying the dual fluorescence reporter were seeded on optical Packard 96-well view plates, treated with […] of the individual compound for 3 days, and primary screened for their DsRed intensity with use of the Wallac Victor3 1420 multilabel counter (Ex: 550/9; Em: 620). The secondary screenings were performed using a digital image detector, Cellomics Arrayscan 3.0 system, which doubly confirmed the intracellular DsRed fluorescence induced by the compound treatment. The endogenous globin gene expression patterns in the positive MEL cells from the primary and secondary screens as well as in compound-treated primary human erythroid cultures were subsequently identified by real time RT-PCR analysis.
# as §2
# β globin mRNA = experiment: Real time RT-PCR of β globin mRNA in primary human erythroid cultures; set-up: dose or concentration left out as unconfirmed; conditions: STO-609, 3 days, FIG. 7A
# Description: as §1, with “The cells were treated with chemical compound at day 7 post-differentiation and then harvested for further analysis after 3 days of compound treatment.” left out
# as §2
# Bcl11a = experiment: Real-time RT-PCR of Bcl11a expression in primary human erythroid cultures; conditions: different concentrations of STO-609, 3 days, FIG. 7C
# Description: (§3) Primary human erythroid cultures were treated with 0.25 μM of compound A, and the relative expression levels of different transcription factors were then determined by real-time RT-PCR analysis. The white bars indicate the expression levels of mock control set as 1. The black bars are the relative expression levels in compound A-treated cells.
# (§4) Mouse erythroleukemic (MEL) cells, an adult erythroid cell line (Friend, et al. (1971) Proc Natl Acad Sci USA 68:378-82), were maintained in DMEM medium (Gibco) supplemented with 10% FBS and 1% penicillin-streptomycin, in 37° C. chamber under a 5% CO2 humidified atmosphere. For establishing stable cell lines, transfection of the reporter pmLAR-Gp-DsRed-Bp-d2EGFP into MEL cells was carried out using the Neon™ transfection system (Invitrogen). 2×10^6 MEL cells were transfected with 5 μg of the plasmid. Following microporation, the MEL cells were seeded in 10 ml antibiotics-free DMEM for 24 hrs and selected with […] of neomycin for one month. […]
# as §2
# c-Myb = experiment: Real-time RT-PCR of c-Myb expression in primary human erythroid cultures; conditions: different concentrations of STO-609, 3 days, FIG. 7D
# Description: Dosage effects of STO-609 on the proliferation and γ/β globin gene expression of differentiated human erythroid progenitor cells were analyzed as described for compounds A-F. The differentiated primary cultured erythroid cells were treated with different concentrations of STO-609 for 3 days. (A) Relative induction of β (white bars) and γ globin mRNAs (black bars) was determined by real time RT-PCR analysis. The proliferation curve of the cells is shown with the mock control being 100%. (B) Relative expression levels of NF-E4 were determined by real time RT-PCR analysis and shown by the grey bars. (C) Relative expression levels of Bcl11a in response to treatments with different concentrations of STO-609 are shown (white bars). (D) Relative expression levels of c-Myb in cells treated with different concentrations of STO-609 are shown (black bars). The mock control is set as 1. […]
# as §2
# NF-E4 = experiment: Real-time RT-PCR of NF-E4 expression in primary human erythroid cultures; conditions: different concentrations of STO-609, 3 days, FIG. 7B
# Description: as §3, §4, §2
# [3] = differentiated human primary erythroid cells, 3 days
# [4] = different concentrations of compound A, 3 days, FIG. 3A
compound,measurement,setting,value
"O=c1c2cccc3cccc(c32)c2nc3ccccc3n12 [compound B, Benzo[de]benzo[4,5]imidazo[2,1-a]isoquinolin-7-one]",IC50,[1]; [3],21.8 µM
"O=C(O)c1ccc(C(=O)O)c2c(-c3ccc4c(=O)n5c6ccccc6nc5c5ccc(C(=O)O)c3c45)ccc(C(=O)O)c12 [compound A, 8-(3-Carboxy-7-oxo-7H-benzo[de]benzo[4,5]imidazo[2,1-a]isoquinolin-4-yl)-naphthalene-1,4,5-tricarboxylic acid]","γ-globin induction fold compared to TSA, hydroxyurea and sodium butyrate","γ globin mRNA; compound A […] vs TSA 0.33 μM, HU 100 μM, NaB 0.5 mM, 3 days, FIG. 3B",highest γ-globin induction fold
same,relative expression level of the γ globin gene as a function of concentration,γ globin mRNA; [4],significantly increased
same,induction of endogenous mouse embryonic εy globin mRNA expression level,[2],more than 10 fold
same,IC50,[1]; [3],0.2 µM
same,proliferation rates of the cells,[1]; [4],in reverse relationship with the concentration of compound A
"O=c1c2cccc3c(Cl)ccc(c32)c2nc3ccccc3n12 [compound C, 3-Chloro-benzo[de]benzo[4,5]imidazo[2,1-a]isoquinolin-7-one]",IC50,[1]; [3],75.2 µM
"O=C(O)c1ccc2c(=O)n3c4ccccc4nc3c3ccc(C(=O)O)c1c23 [compound F, 7-Oxo-7H-benzo[de]benzo[4,5]imidazo[2,1-a]isoquinoline-3,4-dicarboxylic acid]",IC50,[1]; [3],103 µM
"CC(=O)O.O=C(O)c1ccc2c3c1cccc3c(=O)n1c3ccccc3nc21 [STO-609, 7-oxo-7H-benzimidazo[2,1-a]benz[de]isoquinoline-3-carboxylic acid acetate]",concentration at which the fetal γ globin gene expression was elevated,"γ globin mRNA; STO-609, 3 days, FIG. 7A",≥ 50 µM
same,expression level of the fetal γ globin gene,"γ globin mRNA; STO-609, 3 days, FIG. 7A",elevated
same,ability to induce fetal γ globin expression,"γ globin mRNA; survey of compounds with the benzo[de]benzo[4,5]imidazo[2,1-a]isoquinolin-7-one core",displays the fetal γ globin-inducting capability
same,expression level of the adult β globin gene (elevated?),β globin mRNA,but not the adult β globin
same,expression level of the γ globin gene repressor Bcl11a,Bcl11a,down-regulated
same,transcript of c-Myb,c-Myb,significantly reduced
same,transcription of the γ globin gene activator NF-E4,NF-E4,up-regulation
CCCC(=O)[O-].[Na+] [sodium butyrate],IC50,[1]; Homo sapiens,222 µM
NC(=O)NO [hydroxyurea],IC50,[1]; [3],146 µM
